Experimental data published in patent US8796249B2, “TGR5 modulators and methods of use thereof” (Intercept Pharmaceuticals, Inc., priority 2008, dated 2014).
Where two headings read alike, the source gives them in different places. Marks after values point to notes of the source that are not given here. Blank lines part the entries; values can stand above or below the molecule they belong to.

Tests used:
LXRα = biological target: T1, LXRα (Homo sapiens, UniProt Q13133); experiment: LXR coactivator recruitment (alphascreen); type: biochemical; details: ref standard T0901317
T1 sequence (Q13133 1-447): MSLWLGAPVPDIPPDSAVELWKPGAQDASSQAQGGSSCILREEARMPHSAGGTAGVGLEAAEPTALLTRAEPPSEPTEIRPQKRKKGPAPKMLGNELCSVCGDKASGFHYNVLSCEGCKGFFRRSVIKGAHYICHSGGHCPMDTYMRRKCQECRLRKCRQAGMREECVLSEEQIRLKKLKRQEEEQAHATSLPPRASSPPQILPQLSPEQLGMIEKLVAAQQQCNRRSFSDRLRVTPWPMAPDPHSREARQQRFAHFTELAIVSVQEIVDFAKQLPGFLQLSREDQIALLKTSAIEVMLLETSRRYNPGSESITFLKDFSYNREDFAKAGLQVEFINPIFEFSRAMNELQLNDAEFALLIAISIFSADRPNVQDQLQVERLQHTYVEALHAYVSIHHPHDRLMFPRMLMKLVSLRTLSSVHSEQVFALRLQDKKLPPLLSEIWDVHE
Description: (§1) The selectivity of compounds of the invention was evaluated using assay methods known in the art. Specifically, the following assay methods were used: • FXR and LXR: Coactivator Recruitment (alphascreen); • TGR5: cAMP level on human intestinal cell line (NCI-H716); • PXR: Ligands Competition assay (Binding Assay) • CAR: Coactivator Recruitment (Lanthascreen)

PXR = biological target: T2, PXR (Homo sapiens, UniProt O75469); experiment: PXR ligands competition assay (binding assay); details: ligands competition assay (binding assay); ref standard SR-12183
T2 sequence (O75469 1-434): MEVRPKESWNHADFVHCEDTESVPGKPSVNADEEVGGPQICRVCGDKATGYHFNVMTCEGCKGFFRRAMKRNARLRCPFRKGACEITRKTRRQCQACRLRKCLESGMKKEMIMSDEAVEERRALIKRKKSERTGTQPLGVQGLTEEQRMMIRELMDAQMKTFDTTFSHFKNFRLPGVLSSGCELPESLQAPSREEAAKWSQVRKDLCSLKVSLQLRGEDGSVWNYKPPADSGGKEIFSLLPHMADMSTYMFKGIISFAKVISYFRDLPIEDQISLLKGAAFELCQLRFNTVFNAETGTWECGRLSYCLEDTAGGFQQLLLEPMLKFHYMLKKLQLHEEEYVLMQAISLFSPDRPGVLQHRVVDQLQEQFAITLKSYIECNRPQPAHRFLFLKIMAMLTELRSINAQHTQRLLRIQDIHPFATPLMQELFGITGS
Description: as §1

HepG2 cell = HepG2 cell cytotoxicity, ATP decrease; type: cell-based
Description: Compounds of the invention were evaluated for cytotoxicity using standard methods known in the art. Specifically, cytotoxicity was evaluated using HEPG2 cells and monitoring ATP decrease and determining the EC50 value. […]

[1] = BA as protonated species; values from literature; cited from earlier work
[2] = […] NaCl water solution; values from literature; cited from earlier work
CAR = biological target: T3, CAR (Homo sapiens, UniProt Q14994); experiment: CAR coactivator recruitment (Lanthascreen); type: biochemical
T3 sequence (Q14994 1-352): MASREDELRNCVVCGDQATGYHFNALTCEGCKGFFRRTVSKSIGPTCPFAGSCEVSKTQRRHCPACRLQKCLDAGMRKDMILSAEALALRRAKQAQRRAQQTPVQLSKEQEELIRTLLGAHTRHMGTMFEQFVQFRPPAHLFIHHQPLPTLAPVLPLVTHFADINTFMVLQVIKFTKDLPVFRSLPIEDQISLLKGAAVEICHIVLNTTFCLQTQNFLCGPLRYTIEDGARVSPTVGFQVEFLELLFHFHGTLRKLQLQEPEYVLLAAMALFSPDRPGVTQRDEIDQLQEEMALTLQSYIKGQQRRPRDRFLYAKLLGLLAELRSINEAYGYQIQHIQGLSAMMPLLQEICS
Description: as §1

PPARδ = biological target: T4, PPARδ (Homo sapiens, UniProt Q03181); experiment: NR selectivity assay PPARδ; details: unnamed ref standard 0.004 μM
T4 sequence (Q03181 1-441): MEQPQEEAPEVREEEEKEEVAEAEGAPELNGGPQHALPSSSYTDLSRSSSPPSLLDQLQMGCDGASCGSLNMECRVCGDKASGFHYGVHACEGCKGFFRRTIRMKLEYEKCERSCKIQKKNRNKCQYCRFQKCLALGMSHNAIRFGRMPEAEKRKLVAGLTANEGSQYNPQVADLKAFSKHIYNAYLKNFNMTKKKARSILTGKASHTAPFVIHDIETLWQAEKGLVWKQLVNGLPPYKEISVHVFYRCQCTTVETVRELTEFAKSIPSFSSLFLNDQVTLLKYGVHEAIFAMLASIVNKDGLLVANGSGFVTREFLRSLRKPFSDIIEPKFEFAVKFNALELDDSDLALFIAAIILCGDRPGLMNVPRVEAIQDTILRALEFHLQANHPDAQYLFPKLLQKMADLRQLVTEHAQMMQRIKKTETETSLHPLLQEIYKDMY

VDR = biological target: T5, VDR (Homo sapiens, UniProt P11473); experiment: NR selectivity assay VDR; details: unnamed ref standard 0.005 μM
T5 sequence (P11473 1-427): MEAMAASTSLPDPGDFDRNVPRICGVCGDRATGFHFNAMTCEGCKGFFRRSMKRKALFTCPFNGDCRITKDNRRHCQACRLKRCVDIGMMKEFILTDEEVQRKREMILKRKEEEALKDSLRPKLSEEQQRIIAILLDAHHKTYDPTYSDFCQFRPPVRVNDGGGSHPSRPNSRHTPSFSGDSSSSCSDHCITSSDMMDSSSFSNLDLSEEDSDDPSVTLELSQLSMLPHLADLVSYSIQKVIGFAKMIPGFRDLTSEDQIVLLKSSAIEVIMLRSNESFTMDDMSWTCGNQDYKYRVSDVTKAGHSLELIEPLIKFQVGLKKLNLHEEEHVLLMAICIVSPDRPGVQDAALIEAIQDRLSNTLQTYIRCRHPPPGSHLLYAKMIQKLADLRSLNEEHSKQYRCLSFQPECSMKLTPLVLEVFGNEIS

[3] = Critical micellar concentration by surface tension (maximum bubble-pressure method); type: physicochemical; details: […] NaCl water solution
Description: The critical micellar concentration (CMC) was determined by surface tension (ST) measurements using a maximum bubble-pressure method which give surface tension values slightly affected by potential impurities like static methods are. The tensiometer was a […] Research Corp., Milwaukee, Wis.) equipped with two glass probes of 0.5 and 4.0 mm diameters connected to a source of nitrogen. The bubble frequency was 1 bubble/second in distilled water at 26° C. (P=2.7 atm) and the calibration was made with double-distilled water and methanol. The surface tension of BA sodium salts solutions in NaCl 0.15 M was measured at various concentrations inside the 0.13-50 mM range. The surface tension values were plotted against the logarithm of the bile salt concentration; the regression lines corresponding to the two parts of the curve (monomeric and micellar phases) were calculated using the method of least squares, and the intersection of the lines was taken as the CMC value. From the ST vs concentration curves the value of the surface tension at the CMC (equilibrium between monomers and multimers species) was also calculated giving information about the detergency power which is related to the size of the micelles with associate surface tension lowering capacity. The CMC was evaluated by surface tension measurements in non equilibrium conditions i.e. in conditions that impurities slightly affect the surface tension results (FIG. 1).

[4] = 1-Octanol/water partition coefficient (shake-flask); type: physicochemical; details: ionized species, pH 8
Description: Since the sulphate and sulphonated analogues are always ionised at all pH values the octanol/water partition coefficient was measured for all molecules in ionized form. 1-Octanol/water partition coefficient (log P) was evaluated using a conventional shake-flask procedure. […] The aqueous buffer was previously pre-saturated with 1-octanol, 5 ml of 1-octanol pre-saturated with water was then added and the samples were left to equilibrate for 2 weeks under continuous stirring at room temperature After centrifugation the two phases were carefully separated. BA concentration in the water phase was measured with HPLC-ESI ? MS/MS using C18 column (150 mm×2 mm i.d., 4 μm) and, as mobile phases, water containing 15 mM acetic acid pH 5 and acetonitrile. The flow rate was 150 μal/min and the column was maintained at 45° C. The mass spectrometry acquisition was performed in the multiple reaction monitoring mode using the ESI source in negative ionization.

bovine serum albumin [5] = biological target: T6, bovine serum albumin (Bos taurus, UniProt P02769); experiment: Albumin binding by equilibrium dialysis; type: in vitro ADME; details: 100 μM BA in 5% bovine serum albumin-saline, pH 7.2
T6 construct: dissolved at a concentration of 100 μM in 5% bovine serum albumin-saline solution (pH 7.2); from tissue; host or cells: bovine serum (only from the protein's name)
T6 sequence (P02769 25-607): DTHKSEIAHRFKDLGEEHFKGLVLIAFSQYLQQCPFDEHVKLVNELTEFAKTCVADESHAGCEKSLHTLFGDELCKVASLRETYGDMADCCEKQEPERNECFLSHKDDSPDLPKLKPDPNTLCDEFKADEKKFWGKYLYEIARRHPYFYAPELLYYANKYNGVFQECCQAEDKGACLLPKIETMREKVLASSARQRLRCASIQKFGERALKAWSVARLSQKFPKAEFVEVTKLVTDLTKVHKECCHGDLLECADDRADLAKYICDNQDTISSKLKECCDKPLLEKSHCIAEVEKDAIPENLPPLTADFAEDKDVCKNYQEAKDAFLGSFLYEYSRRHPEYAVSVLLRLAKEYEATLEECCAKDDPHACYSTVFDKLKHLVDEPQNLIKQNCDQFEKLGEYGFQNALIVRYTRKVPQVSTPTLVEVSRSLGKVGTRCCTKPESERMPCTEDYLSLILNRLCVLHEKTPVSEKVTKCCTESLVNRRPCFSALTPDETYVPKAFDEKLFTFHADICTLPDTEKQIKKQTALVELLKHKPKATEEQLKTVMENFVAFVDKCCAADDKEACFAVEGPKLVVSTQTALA
Description: The extent of albumin binding was evaluated by equilibrium dialysis at a fixed BA-albumin ratio. BA was dissolved at a concentration of 100 μM in 5% bovine serum albumin-saline solution (pH 7.2) and left to stand for 24 h at 25° C. Two milliliters of this solution was dialyzed in cellulose sacs having a molecular weight cut-off of 12-14,000 against 25 ml of saline solution. The system was equilibrated by mechanical gently shaking for 72 h at 25° C. BA concentrations of the dialyzed solution (corresponding to the free unbound fraction) and of the starting solution were determined with HPLC-ESI-MS/MS in the same conditions of the previous analysis. The percent of albumin binding was calculate from the initial BA concentration and from the unbound concentration in the dialyzed fraction. All these compounds never less present an albumin binding compatible with a relatively fast hepatic uptake, similarly to natural occurring BA. Accordingly different kinetics (slower) of the liver uptake is expected.

Intestinal Bacteria = experiment: In vitro metabolic stability in human stool culture; details: human stool cultures
Description: Homogenized fresh human stools (500 mg) were transferred into sterile vials to which 5 mL of sterilized chopped meat-glucose medium (Scott Lab., Fiskville, R.I.) was added. BA were then added at a final concentration of 0.05 mM. Vials were incubated at 37° C.; then, at 0, 1, 2, 4, 8 and 24 h after the addition of the BA, the reaction was stopped with 150 μL of 30% KOH. The samples were centrifuged at 3500 rpm for 10 min; from the supernatant the BA were isolated by C-18 solid-phase extraction and analyzed by TLC and HPLC-ES-MS/MS.
Thin-layer chromatography (TLC), utilizing silica gel 0.25 mm thickness plates (Merck, Darmstat, Germany), was employed as the first screening test. The solvent system used for the separation of conjugated BA was composed of propionic acid/isoamyl acetate/water/N-propanol (3:4:1:2, v/v/v/v; solvent I), and that of the unconjugated BA was acetic acid/carbon tetrachloride/isopropyl ether/isoamyl acetate/water/N-propanol/benzene (1:4:6:8:2:2, v/v/v/v/v/v; solvent II).

[6] = Previous study of oleanolic acid (OA) in animals; type: in vivo
Description: Therefore, OA is administered at the dose of 50 mg/kg/d in this study.

Water solubility = type: physicochemical; details: BA as protonated species, 0.1 M HCl, pH 1; hs = highly soluble, not evaluated
Description: Solid compound (BA) was suspended in 5 ml of 0.1 M HCl. […] The flow rate was 150 μl/min. The mass spectrometry acquisition was performed in the multiple reaction monitoring mode using the ESI source in negative ionization. Water solubility was expressed as μmol/liter.
The water solubility was measured for the insoluble protonated species of carboxylated bile acids at a pH 1.

[7] = ionized species; values from literature; cited from earlier work
bovine serum albumin [8] = biological target: T6, bovine serum albumin; details: values from literature; cited from earlier work
[9] = coactivator recruitment (Lanthascreen), ref standard CITCO

Structure (SMILES): C[C@H](CCC(=O)O)[C@H]1CC[C@H]2[C@@H]3[C@H](O)C[C@@H]4C[C@H](O)CC[C@]4(C)[C@H]3CC[C@]12C [CDCA, chenodeoxycholic acid]
LXRα EC50 (LXRα): No
EC50 (CAR): > 250 µM
PPARδ EC50 (PPARδ): No
VDR EC50 (VDR): No
CMC […] Na+ [3]: 3.2 mM
STCMC (surface tension at CMC) [3]: 45.5 Dyne/cm
LogPA- (1-octanol-water partition coefficient) [4]: 2.2
Albumin Binding (bovine serum albumin [5]): 93%
half-life time (Intestinal Bacteria): almost one hour

Structure (SMILES): C[C@H](CCC(=O)O)[C@H]1CC[C@H]2[C@@H]3CC[C@@H]4C[C@H](O)CC[C@]4(C)[C@H]3CC[C@]12C [LCA, lithocholic acid]
LXRα EC50 (LXRα): No
CAR EC50 (CAR; [9]): No
PPARδ EC50 (PPARδ): No

Structure (SMILES): CN[C@@H]1C[C@H]2O[C@@](C)([C@@H]1OC)n1c3ccccc3c3c4c(c5c6ccccc6n2c5c31)C(=O)NC4 [Staurosporine, reference compound]
EC50 (HepG2 cell; human): 15 µM

Structure (SMILES): C[C@H](CCC(=O)O)[C@H]1CC[C@H]2[C@@H]3[C@@H](O)C[C@@H]4C[C@H](O)CC[C@]4(C)[C@H]3CC[C@]12C [UDCA, reference compound]
LXRα EC50 (LXRα): No
EC50 (CAR; [9]): > 250 µM
PPARδ EC50 (PPARδ): No
VDR EC50 (VDR): No
Ws (water solubility) (Water solubility): 7.5 µM
CMC […] Na+ [3]: 6.0 mM
STCMC (surface tension at CMC) [3]: 50.5 Dyne/cm
LogPA- (1-octanol-water partition coefficient) [4]: 2.2
Albumin Binding (bovine serum albumin [5]): 94%
EC50 (HepG2 cell): > 1000 µM

More lines, main results first:

LXRα EC50 (LXRα): No
PXR EC50 (PXR): No
Structure (SMILES): C[C@H](CCC(=O)O)[C@H]1CC[C@H]2[C@@H]3[C@H](O)C[C@@H]4C[C@H](O)CC[C@]4(C)[C@H]3C[C@H](O)[C@]12C [CA]
EC50 (HepG2 cell; read-out: HepG2 cell Cytotoxicity ATP decrease EC50): > 1000 µM
Ws (water solubility) [1]: 273* μM
CMC […] Na+ [2]: 11* mM

food aversion [6]: did not cause food aversion
Structure (SMILES): CC1(C)CC[C@]2(C(=O)O)CC[C@]3(C)C(=CC[C@@H]4[C@@]5(C)CC[C@H](O)C(C)(C)[C@@H]5CC[C@]43C)[C@@H]2C1 [OA, oleanolic acid]
toxicity ([6]; dose of 100 mg/kg/day): some signs of toxicity
tolerability ([6]; lower dose than 100 mg/kg/day): well tolerated

Ws (water solubility) (Water solubility): hs
Structure (SMILES): C[C@H](CCC(=O)NCCS(=O)(=O)O)[C@H]1CC[C@H]2[C@@H]3[C@H](O)C[C@@H]4C[C@H](O)CC[C@]4(C)[C@H]3CC[C@]12C [TCDCA]
CMC […] Na+ [2]: 3.0* mM
LogPA- (1-octanol-water partition coefficient) [7]: 0.9*
Albumin Binding (bovine serum albumin [8]): 70* %

Ws (water solubility) (Water solubility): hs
Structure (SMILES): C[C@H](CCC(=O)NCCS(=O)(=O)O)[C@H]1CC[C@H]2[C@@H]3[C@@H](O)C[C@@H]4C[C@H](O)CC[C@]4(C)[C@H]3CC[C@]12C [TUDCA]
CMC […] Na+ [2]: 2.2* mM
LogPA- (1-octanol-water partition coefficient) [7]: 1.1*
Albumin Binding (bovine serum albumin [8]): 67* %
